Nine molecules from patent US20070117808A1, “Substituted Cycloalkylpyrrolones As Allosteric Modulators Of Glucokinase” (priority 2005, published 2007) can be followed below.

This experiment deals with T1, human pancreas Glucokinase (GK) (Homo sapiens, UniProt P35557).
T1 construct: (His)6; made in house; host or cells: Escherichia coli
T1 sequence (P35557 1-465): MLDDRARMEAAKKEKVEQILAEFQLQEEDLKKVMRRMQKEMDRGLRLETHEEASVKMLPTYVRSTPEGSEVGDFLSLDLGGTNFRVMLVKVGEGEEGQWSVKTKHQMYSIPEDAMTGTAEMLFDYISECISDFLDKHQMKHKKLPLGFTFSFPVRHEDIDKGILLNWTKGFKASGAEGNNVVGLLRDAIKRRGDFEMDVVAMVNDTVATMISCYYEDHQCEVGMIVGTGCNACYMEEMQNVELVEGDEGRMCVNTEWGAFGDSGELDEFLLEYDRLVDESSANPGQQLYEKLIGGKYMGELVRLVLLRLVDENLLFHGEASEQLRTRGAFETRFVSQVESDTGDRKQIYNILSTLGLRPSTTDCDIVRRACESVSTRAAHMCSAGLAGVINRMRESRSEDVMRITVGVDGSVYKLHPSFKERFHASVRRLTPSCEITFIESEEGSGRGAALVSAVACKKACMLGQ
The experiment in a line: Glucokinase enzyme assay, pancreas GK. Type of experiment: biochemical. The conditions noted are these: for EC50: concentration that produces 50% activation above the vehicle control; for EC100%: concentration that produces 100% activation above the vehicle control; for activation at 50 µM: percentage increase in GK activity above vehicle control, compound 50 μM, 12 mM glucose. An excerpt:
An enzymatic Glucokinase (GK) assay using purified recombinant human liver/pancreas enzyme was used to evaluate the effects of potential small molecule modulators.
In this assay, GK catalyzes glucose phosphorylation in the presence of ATP. The product of this reaction, glucose-6-phosphate, was then oxidized by an excess of glucose-6-phosphate dehydrogenase to produce gluconate-6-phosphate with concomitant reduction of nicotinamide adenine dinucleotide (NAD). […] Human GK (Liver/Pancreas) was expressed in Escherichia coli as a (His) 6-tagged fusion protein and was purified by metal chelate affinity chromatography. The assay was performed in a final incubation volume of 80 μl in a 96-well clear low UV absorption plates. The incubation mixture consisted of 25 mM HEPES, 2 mM MgSO4, 1 mM dithiothreotol (DTT), 1 mg/mL bovine serum albumin (BSA), 1 mM ATP, 1 mM NAD, and 12 mM glucose, 10 units per mL glucose-6-phosphate dehydrogenase, and +/−300 ng per mL GK. For determination of the affinity (Km) and Vmax, different concentrations of glucose ranging from 0.5 mM to 40 mM were used in the assay; see Grimsby, J., Sarabu, R.; Grippo, J. F.; et. al. Science 2003, 301, 370-373. Production of reduced NAD (Nicotinamide Adenine Dinucleotide) was measured as changes in absorption at 340 nm in 96-well plate reader (Envision model # 2101 Multilabel Plate reader). % Activation @ 50 μM was calculated as the percentage increase in GK activity above the vehicle control with the effective concentration of the compound being 50 μM. EC50% (μM) was calculated as the effective concentration of the compound that produces 50% activation above the vehicle control, and EC100% (μM) was calculated as the effective concentration of the compound that produces 100% activation above the vehicle control.

Values joined by “and” are separate entries in the source; they are usually repeats but may differ in a detail not shown here. Equal entries are not always repeated.

Regarding `COc1ccc(CN2C(=O)C3=C(CCCC3)C2SCC(=O)Nc2ccc(C(N)=O)cn2)cc1OC` (stereo not drawn) [Compound 13, 6-{2-[2-(3,4-Dimethoxy-benzyl)-3-oxo-2,3,4,5,6,7-hexahydro-1H-isoindol-1-ylsulfanyl]-acetylamino}-nicotinamide], the EC50 amounted to 210 nM and the “EC100%” value amounted to 3.1 µM.

On to `O=C(CSC1C2=C(CCCC2)C(=O)N1Cc1ccc([N+](=O)[O-])cc1)Nc1ccccn1` (stereo not drawn) [Compound 14, 2-[2-(4-Nitro-benzyl)-3-oxo-2,3,4,5,6,7-hexahydro-1H-isoindol-1-ylsulfanyl]-N-pyridin-2-yl-acetamide], for which the EC50 amounted to 10900 nM, the “EC100%” value is more than 50 µM and the activation at 50 µM amounted to 79.4%.

`O=C(CSC1C2=C(CCCC2)C(=O)N1Cc1ccc(O)cc1)Nc1nccs1` (stereo not drawn) [Compound 15, 2-[2-(4-Hydroxy-benzyl)-3-oxo-2,3,4,5,6,7-hexahydro-1H-isoindol-1-ylsulfanyl]-N-thiazol-2-yl-acetamide]: the EC50 was found to be 7300 nM, the “EC100%” value is more than 50 µM and the activation at 50 µM came to 106%.

As to `COc1ccc(CN2C(=O)C3=C(CCC3)C2SCC(=O)Nc2ccccn2)cc1` (stereo not drawn) [Compound 16, 2-[2-(4-Methoxy-benzyl)-3-oxo-1,2,3,4,5,6-hexahydro-cyclopenta[c]pyrrol-1-ylsulfanyl]-N-pyridin-2-yl-acetamide], the EC50 stood at 1100 nM, the “EC100%” value was 4.9 µM and the activation at 50 µM was found to be 190%.

In the case of `O=C(CSC1C2=C(CCCC2)C(=O)N1Cc1cccc2ccccc12)Nc1ccccn1` (stereo not drawn) [Compound 17, 2-(2-Naphthalen-1-ylmethyl-3-oxo-2,3,4,5,6,7-hexahydro-1H-isoindol-1-ylsulfanyl)-N-pyridin-2-yl-acetamide], the EC50 stood at 710 nM, the “EC100%” value is 6.3 µM and the activation at 50 µM came out at 125%.

With `O=C(CSC1C2=C(CCCC2)C(=O)N1Cc1cccnc1)Nc1ccccn1` (stereo not drawn) [Compound 18, 2-(3-Oxo-2-pyridin-3-ylmethyl-2,3,4,5,6,7-hexahydro-1H-isoindol-1-ylsulfanyl)-N-pyridin-2-yl-acetamide], the EC50 was 3600 nM and the “EC100%” value came to 22 µM.

Turning to `O=C(CSC1C2=C(CCCC2)C(=O)N1Cc1ccncc1)Nc1ccccn1` (stereo not drawn) [Compound 19, 2-(3-Oxo-2-pyridin-4-ylmethyl-2,3,4,5,6,7-hexahydro-1H-isoindol-1-ylsulfanyl)-N-pyridin-2-yl-acetamide], the EC50 came to 1600 nM, the “EC100%” value is 5 µM and the activation at 50 µM was determined as 218%.

For `NC(=O)c1ccc(NC(=O)CSC2C3=C(CCCC3)C(=O)N2Cc2ccc(F)cc2)nc1` (stereo not drawn) [Compound 20, 6-{2-[2-(4-Fluorobenzyl)-3-oxo-2,3,4,5,6,7-hexahydro-1H-isoindol-1-sulfanyl]-acetylamino}-nicotinamide], the EC50 was 450 nM and 270 nM; the “EC100%” value was 2 µM and 3.6 µM.

As to `O=C(CSC1C2=C(CCCC2)C(=O)N1Cc1ccc(F)cc1)Nc1ccc(C(=O)O)cn1` (stereo not drawn) [Compound 21, 6-{2-[2-(4-Fluoro-benzyl)-3-oxo-2,3,4,5,6,7-hexahydro-1H-isoindol-1-ylsulfanyl]-acetylamino}-nicotinic acid], the EC50 was determined as 2200 nM, the “EC100%” value was 12 µM and the activation at 50 µM was 165%.
